From patent US7541364B2, “Pyridomorphinans, pyridazinomorphinans and use thereof” (priority 2003, dated 2009)
Structures can show the parent of a compound that is named as a salt.

What was measured:
opioid δ receptor = molecular target: T1, opioid δ receptor (Rattus norvegicus, UniProt P33533); test: Opioid δ receptor binding, [3H]DADLE displacement in rat brain membranes; conditions: for Ki: displacement of [3H]DADLE (1.3-2.0 nM), rat brain membranes, 100 nM DAMGO to block μ sites, read-out: Ki (nM) ± SEM δ
T1 construct: Rat membranes are prepared each day using a partially thawed frozen rat brain; from tissue; host or cells: rat brain membranes

δ receptor [1] = molecular target: T2, δ receptor (Cavia porcellus, UniProt A0A286XTF2); test: biochemical; parameters: Emax: dose or concentration left out as unconfirmed
μ receptor [2] = molecular target: T3, μ receptor (Cavia porcellus, UniProt A0ACM8Q262); test: biochemical; parameters: dose or concentration left out as unconfirmed; conditions: read-out: agonist activity Emax % μ
opioid μ receptor = opioid μ receptor (Rattus norvegicus, UniProt P33535); conditions: for selectivity ratio μ/δ: ratio of binding Ki values; for Ki: read-out: Ki (nM) ± SEM μ, displacement of [3H]DAMGO (1.4-3.0 nM), rat brain membranes
opioid κ receptor = opioid κ receptor (Cavia porcellus, UniProt P41144); conditions: for selectivity ratio κ/δ: ratio of binding Ki values; for Ki: read-out: Ki (nM) ± SEM κ, displacement of [3H]U69,593 (1.2-[…]), guinea pig brain membranes
μ receptor [3] = molecular target: T3, μ receptor; conditions: for Ki: read-out: antagonist activity apparent Ki (nM ± SD) μ, inhibition of DAMGO (10 μM) stimulated [35S]GTP-γ-S binding; for EC50: read-out: agonist activity EC50 (nM ± SD) μ, δ and κ sites blocked with TIPP (1 μM) and nor-BNI (6 nM)
mice = test: 55° C. tail-flick antinociception test in mice; conditions: for A50: at time of peak drug effect; for naloxone sensitivity: naloxone 10 mg/kg ip, -10 min, yes = greater than 80% reduction in the antinociceptive effect
Experimental: Analgesic Testing and Assessment of Tolerance Development. The analgesic activity of selected ligands is tested in mice using the 55° C. tail-flick test as previously described. (See Wells et al., supra.) The test compounds are administered by the intracerbroventricular (icv) route. […] To determine whether the analgesic activity of the tested compounds is mediated through opioid receptors, the blockade of antinociceptive activity by pretreatment with naloxone is carried out. The analgesic activity was considered as naloxone sensitive if greater than 80% reduction in the antinociceptive response is observed.
Antinociceptive Studies. Male ICR mice (Harlan) are used for all evaluations. Mice are housed in a temperature and humidity controlled vivarium on a 12:12 h light:dark cycle with unlimited access to food and water prior to the formal procedures. […] The dihydrochloride salt of 7h is dissolved in water and injected in a volume of 5 μL. All other compounds are dissolved in 100% DMSO and injected in a volume of 5 μL. Antinociceptive assays are performed at various times after injection.
Percent antinociception is calculated using the formula: % MPE (maximal possible effect)=100×(test−control)/(cutoff−control) where control is the predrug observation, test is the postdrug observation, and cutoff is the maximal length of stimulus allowed (10 s for 55° C. tail-flick). Antinociceptive A50 values and 95% confidence intervals are determined using linear regression software (FlashCalc). Opioid activity of the test compounds are assessed by pretreating animals with naloxone (10 mg/kg ip, −10 min) followed by an icv injection of an approximate A90 dose of test compound. […] Antinociception is assessed in the 55° C. tail-flick test at 10, 20 and 30 min. A positive response to a fixed dose of naloxone is indicated when greater than 80% reduction in the antinociceptive effect of the agonist is observed.

[4] = molecular target: T4, δ receptor (mouse vas deferens) (Mus musculus, UniProt P32300); test: Mouse vas deferens (MVD) smooth muscle bioassay; conditions: for IC50: inhibition of electrically stimulated contractions, read-out: agonist activity MVD (δ) IC50
Experimental: (§1) Bioassays in Smooth Muscle Preparations. The functional activity profiles of selected ligands are also determined in the mouse vas deferens (MVD) and guinea pig ileum (GPI) smooth muscle preparations as described previously.
(§2) The agonist activity is determined by the ability of the compound to inhibit electrically stimulated contractions of the GPI and MVD. The GPI is primarily a μ receptor preparation, even though the ileum does also contain κ receptors. In the MVD, the opioid effects are predominantly mediated through δ receptors, but μ and κ receptors also exist in this tissue.
(§3) Tissues came from male ICR mice weighing 25-40 g and male Hartley guinea pigs weighing 250-500 g. The tissues are tied to gold chain with suture silk, suspended in 20 mL baths containing 37° C. oxygenated (95% O2, 5% CO2) Krebs bicarbonate solution (magnesium free for the MVD), and allowed to equilibrate for 15 min. The tissues are then stretched to optimal length previously determined to be 1 g tension (0.5 g for MVD) and allowed to equilibrate for 15 min. The tissues are stimulated transmurally between platinum wire electrodes at 0.1 Hz, 0.4 ms pulses (2-ms pulses for MVD), and supramaximal voltage. […] Tissues not producing typical results are not used. Experimental compounds were added to the baths in 14-60 μL volumes. Succeeding doses of agonist are added cumulatively to the bath at 3 min intervals to produce a concentration-response curve. The tissues are then washed extensively with fresh buffer until the original contraction height is reestablished. […] The tissues are then washed with fresh buffer for 30 min, and the agonist dose-response curve was repeated. Rightward shifts in the dose-response curves are calculated by dividing the antagonized dose-response curve IC50 value by the unantagonized IC50 value. IC50 values represent the mean of two to four tissues. IC50 estimates and their associated standard errors are determined by using a computerized nonlinear least-squares method. (MINSQ Least Squares Parameter Estimation, version 3.05; MicroMath Inc., 1999.)

κ receptor = κ receptor (Cavia porcellus, UniProt P41144); conditions: read-out: antagonist activity apparent Ki (nM ± SD) κ
[5] = molecular target: T4, δ receptor (mouse vas deferens); test: Mouse vas deferens (MVD) smooth muscle bioassay; parameters: from tissue; host or cells: mouse vas deferens (male ICR mice)
Experimental: as §1, §2, §3

δ receptor [6] = molecular target: T2, δ receptor; conditions: δ receptors, partial inhibition with increasing concentrations

T1 sequence (P33533 whole entry): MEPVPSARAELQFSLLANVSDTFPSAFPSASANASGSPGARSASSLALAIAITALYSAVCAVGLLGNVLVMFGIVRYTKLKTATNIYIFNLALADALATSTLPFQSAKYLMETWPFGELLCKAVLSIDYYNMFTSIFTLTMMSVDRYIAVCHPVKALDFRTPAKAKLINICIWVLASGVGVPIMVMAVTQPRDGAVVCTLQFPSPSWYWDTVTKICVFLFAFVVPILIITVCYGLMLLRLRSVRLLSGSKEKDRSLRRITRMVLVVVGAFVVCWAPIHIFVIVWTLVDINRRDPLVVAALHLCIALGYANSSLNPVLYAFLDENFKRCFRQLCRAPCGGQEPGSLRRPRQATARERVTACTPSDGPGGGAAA
opioid μ receptor, sequence (P33535 whole entry): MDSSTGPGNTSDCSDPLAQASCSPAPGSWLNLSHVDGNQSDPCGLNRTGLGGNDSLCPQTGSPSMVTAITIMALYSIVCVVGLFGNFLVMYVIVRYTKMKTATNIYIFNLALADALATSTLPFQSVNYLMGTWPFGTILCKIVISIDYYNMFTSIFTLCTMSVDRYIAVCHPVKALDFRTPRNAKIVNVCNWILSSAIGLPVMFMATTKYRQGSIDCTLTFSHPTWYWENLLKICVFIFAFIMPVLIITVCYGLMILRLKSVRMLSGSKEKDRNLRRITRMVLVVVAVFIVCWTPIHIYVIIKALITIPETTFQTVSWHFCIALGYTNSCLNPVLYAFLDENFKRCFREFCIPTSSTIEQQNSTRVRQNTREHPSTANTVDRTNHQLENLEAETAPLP
T2 sequence (A0A286XTF2 1-366): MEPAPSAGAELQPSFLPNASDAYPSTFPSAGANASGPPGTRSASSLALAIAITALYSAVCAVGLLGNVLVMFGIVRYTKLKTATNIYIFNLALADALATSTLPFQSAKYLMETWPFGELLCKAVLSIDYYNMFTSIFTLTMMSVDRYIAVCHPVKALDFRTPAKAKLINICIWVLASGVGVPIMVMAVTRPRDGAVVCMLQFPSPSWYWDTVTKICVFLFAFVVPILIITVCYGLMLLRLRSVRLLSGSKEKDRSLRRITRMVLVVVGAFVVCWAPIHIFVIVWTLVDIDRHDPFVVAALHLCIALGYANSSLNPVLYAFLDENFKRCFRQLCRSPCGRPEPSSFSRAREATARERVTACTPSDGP
T4 sequence (P32300 whole entry): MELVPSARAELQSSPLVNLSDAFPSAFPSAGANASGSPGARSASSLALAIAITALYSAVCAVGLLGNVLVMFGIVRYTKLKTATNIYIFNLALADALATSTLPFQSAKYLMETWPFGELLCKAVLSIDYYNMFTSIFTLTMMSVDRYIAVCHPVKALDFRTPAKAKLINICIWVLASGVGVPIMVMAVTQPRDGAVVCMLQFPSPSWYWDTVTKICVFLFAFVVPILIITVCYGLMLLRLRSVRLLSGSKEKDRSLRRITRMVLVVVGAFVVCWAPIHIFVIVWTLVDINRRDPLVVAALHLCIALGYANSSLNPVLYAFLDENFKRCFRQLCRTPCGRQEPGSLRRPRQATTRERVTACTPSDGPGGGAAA
opioid κ receptor, sequence (P41144 whole entry): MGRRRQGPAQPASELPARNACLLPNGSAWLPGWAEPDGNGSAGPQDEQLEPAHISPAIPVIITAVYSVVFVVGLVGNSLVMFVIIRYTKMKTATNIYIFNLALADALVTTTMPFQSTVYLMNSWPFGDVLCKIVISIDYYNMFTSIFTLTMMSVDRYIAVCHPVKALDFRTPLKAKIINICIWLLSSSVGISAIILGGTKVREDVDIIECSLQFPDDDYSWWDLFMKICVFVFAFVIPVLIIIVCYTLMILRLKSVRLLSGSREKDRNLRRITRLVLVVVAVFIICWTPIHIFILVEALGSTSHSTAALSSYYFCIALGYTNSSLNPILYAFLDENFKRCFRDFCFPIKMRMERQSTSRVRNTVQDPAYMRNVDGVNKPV
T3 sequence (A0ACM8Q262 1-400): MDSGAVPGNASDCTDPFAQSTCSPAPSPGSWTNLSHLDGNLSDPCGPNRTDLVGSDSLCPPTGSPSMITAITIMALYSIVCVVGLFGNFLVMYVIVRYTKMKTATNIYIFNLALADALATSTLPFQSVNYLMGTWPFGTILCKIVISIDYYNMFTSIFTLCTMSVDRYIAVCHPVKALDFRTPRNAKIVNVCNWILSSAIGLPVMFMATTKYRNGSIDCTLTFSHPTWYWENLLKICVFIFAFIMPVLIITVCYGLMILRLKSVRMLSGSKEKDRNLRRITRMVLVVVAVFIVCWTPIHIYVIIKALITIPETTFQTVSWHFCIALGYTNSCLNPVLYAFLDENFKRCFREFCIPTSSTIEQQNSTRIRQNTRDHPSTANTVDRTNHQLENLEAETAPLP
κ receptor, sequence (P41144 whole entry): as the sequence (P41144 whole entry) above

With CN1CC[C@]23c4c5ccc(O)c4O[C@H]2c2ncc(-c4ccc(Cl)cc4)cc2C[C@H]3[C@H]1C5 (as salt: salt) [7h, 5′-(4-Chlorophenyl)-6,7-didehydro-4,5α-epoxy-3-hydroxy-17-methylpyrido[2′,3′:6,7]morphinan] the melting point was 276 to 278 °C (dec.).

For C=CCN1CC[C@]23c4c5ccc(O)c4O[C@H]2c2ncc(-c4ccc(Cl)cc4)cc2C[C@@]3(O)[C@H]1C5 [7a, 17-(Allyl)-6,7-didehydro-3,14-dihydroxy-4,5α-epoxy-5′-(4-chlorophenyl)pyrido[2′,3′:6,7]morphinan], the “reduction in affinity at the δ site compared to 2c” value (opioid δ receptor; N-allyl vs N-CPM) was 4 fold, the Ki (opioid δ receptor) was 8.2 ± 0.07 nM and the melting point was 168 to 172 °C.

CN1CC[C@]23c4c5ccc(O)c4O[C@H]2c2ncccc2C[C@@]3(O)[C@H]1C5 [7b, 6,7-Didehydro-3,14-dihydroxy-4,5α-epoxy-17-methylpyrido[2′,3′:6,7]morphinan] showed a Ki (δ receptor [1]) greater than 1000 nM, a Ki (opioid δ receptor) of 18 ± 1.4 nM and an Emax (μ receptor [2]) of 40 ± 2%. For the same compound, the “selectivity ratio μ/δ” value (opioid μ receptor) was 0.4, the Ki (opioid μ receptor) was 7.9 ± 0.23 nM and the melting point was greater than 230 °C. The “selectivity ratio κ/δ” value (opioid κ receptor) was 15, the Ki (opioid κ receptor) was 264 ± 18 nM and the Ki (μ receptor [3]) was greater than 1000 nM. The A50 (mice; icv, mouse tail-flick) was 67.1 nmol and the naloxone sensitivity (mice) was “yes”.

CN1CC[C@]23c4c5ccc(O)c4O[C@H]2c2ncccc2C[C@H]3[C@H]1C5 [7f, 6,7-Didehydro-4,5α-epoxy-3-hydroxy-17-methylpyrido[2′,3′:6,7]morphinan] showed a Ki (δ receptor [1]) of 595 ± 48 nM, a Ki (opioid δ receptor) of 8 ± 0.8 nM and an Emax (μ receptor [2]) of 44 ± 1%. The “selectivity ratio μ/δ” value (opioid μ receptor) was 2.0, the Ki (opioid μ receptor) was 13 ± 0.5 nM and the melting point was 164 to 166 °C. The “selectivity ratio κ/δ” value (opioid κ receptor) was 8, the Ki (opioid κ receptor) was 66 ± 2 nM and the EC50 (μ receptor [3]) was 502 ± 76 nM. For the same compound, the Ki (μ receptor [3]) was greater than 1000 nM, the IC50 [4] was 152 ± 25.5 nM and the “blockade of agonist activity in the MVD by antagonists” value ([4]; naloxone and ICI-174,864) was “blocked by the nonselective antagonist naloxone but not by the δ selective antagonist ICI-174,864”. For the same compound, the “% nociception @ 100 nmol” value (mice; icv, mouse tail-flick) was 75% @100 nmol, the “factor that prevented determining the A50 value” (mice; icv, mouse tail-flick) was “insensitivity to naloxone” and the naloxone sensitivity (mice) was “no”.

In the case of CN1CC[C@]23c4c5ccc(O)c4O[C@H]2c2ncc(-c4ccccc4)cc2C[C@H]3[C@H]1C5 [7g, 6,7-Didehydro-4,5α-epoxy-3-hydroxy-17-methyl-5′-phenylpyrido[2′,3′:6,7]morphinan], the Ki (δ receptor [1]) is reported as greater than 1000 nM, the Ki (opioid δ receptor) is reported as 1.9 ± 0.09 nM and the Emax (μ receptor [2]) is reported as 60%. For the same compound, the “selectivity ratio μ/δ” value (opioid μ receptor) was 13, the Ki (opioid μ receptor) was 24 ± 2 nM and the “selectivity ratio κ/δ” value (opioid κ receptor) was 43. It also gave a Ki (opioid κ receptor) of 81 ± 5 nM, a Ki (μ receptor [3]) greater than 1000 nM and an IC50 [4] of 48.4 ± 8.65 nM. For the same compound, the “% nociception @ 100 nmol” value (mice; icv, mouse tail-flick) was 48% @ 100 nmol, the “toxicity preventing A50 determination” value (mice; icv, mice) was “toxicity” and the naloxone sensitivity (mice) was “yes”.

Work on CN1CC[C@]23c4c5ccc(O)c4O[C@H]2c2ncc(-c4ccc(Br)cc4)cc2C[C@H]3[C@H]1C5 [7i, 5′-(4-Bromophenyl)-6,7-didehydro-4,5α-epoxy-3-hydroxy-17-methylpyrido[2′,3′:6,7]morphinan] yielded an IC50 (δ receptor [1]) of 55 nM, a Ki (opioid δ receptor) of 5 ± 0.6 nM and an Emax (μ receptor [2]) of 59 ± 3%. The Ki (κ receptor) was 265 ± 29 nM, the “selectivity ratio μ/δ” value (opioid μ receptor) was 40 and the Ki (opioid μ receptor) was 200 ± 11 nM. The melting point was 186 to 188 °C, the “selectivity ratio κ/δ” value (opioid κ receptor) was 18 and the Ki (opioid κ receptor) was 91 ± 6 nM. For the same compound, the Ki (μ receptor [3]) was greater than 1000 nM, the Kb [5] was 20 ± 6.59 nM and the “maximum percentage inhibition of SNC-80 stimulated [35S]GTP-γ-S binding” value (δ receptor [6]) was 69±3%. The A50 (mice; icv, mouse tail-flick) was 47.2 nmol and the naloxone sensitivity (mice) was “yes”.

Oc1ccc2c3c1O[C@H]1c4ncc(-c5ccc(Cl)cc5)cc4C[C@H]4[C@@H](C2)N(CC2CC2)CC[C@]314 [7l, 5′-(4-Chlorophenyl)-17-(cyclopropylmethyl)-6,7-didehydro-4,5α-epoxy-3-hydroxypyrido[2′,3′:6,7]morphinan] gave a Ki (δ receptor [1]) of 1.56 ± 0.14 nM, a Ki (opioid δ receptor) of 2.6 ± 0.12 nM and a Ki (κ receptor) of 11.2 ± 0.62 nM. The “selectivity ratio μ/δ” value (opioid μ receptor) was 24, the Ki (opioid μ receptor) was 62 ± 3 nM and the melting point was 178 to 180 °C. For the same compound, the “selectivity ratio κ/δ” value (opioid κ receptor) was 2.3, the Ki (opioid κ receptor) was 6 ± 0.3 nM and the Kb [5] was 6 ± 1.33 nM. The “% nociception @ 300 nmol” value (mice; icv, 300 nmol, mouse tail-flick) was 18% @ 300 nmol and the “factor that prevented determining the A50 value” (mice; icv, mouse tail-flick) was “lack of efficacy”.

Compound COc1ccc2c3c1O[C@H]1c4ncccc4C[C@@]4(O)[C@@H](C2)N(C)CC[C@]314 [7m, 6,7-Didehydro-4,5α-epoxy-14-hydroxy-3-methoxy-17-methylpyrido[2′,3′:6,7]morphinan] has a Ki (opioid δ receptor) of 143 ± 9 nM and a melting point of 210 to 212 °C.

Compound COc1ccc2c3c1O[C@H]1c4ncc(-c5ccc(Cl)cc5)cc4C[C@@]4(O)[C@@H](C2)N(C)CC[C@]314 [7o, 5′-(4-chlorophenyl)-6,7-didehydro-4,5α-epoxy-14-hydroxy-3-methoxy-17-methyl-pyrido[2′,3′:6,7]morphinan] has a Ki (opioid δ receptor) of 21 ± 2 nM and a melting point of 112 to 114 °C.

COc1ccc2c3c1O[C@H]1c4ncc(-c5ccc(Cl)cc5)cc4C[C@H]4[C@@H](C2)N(CC2CC2)CC[C@]314 [7q, 5′-(4-chlorophenyl)-17-(cyclopropylmethyl)-6,7-didehydro-4,5α-epoxy-3-methoxypyrido[2′,3′:6,7]morphinan] gave a Ki (opioid δ receptor) of 41 ± 3 nM and a melting point of 196 to 198 °C.

Work on C[C@@H](NC(=O)[C@@H](N)Cc1ccc(O)cc1)C(=O)NCC(=O)N(C)[C@@H](Cc1ccccc1)C(=O)NCCO [DAMGO, reference compound] yielded an Emax (μ receptor [2]) of 100% and an EC50 (μ receptor [3]) of 414 nM.

With CN1CC[C@]23c4c5ccc(O)c4O[C@H]2[C@@H](O)C=C[C@H]3[C@H]1C5 [Morphine, reference compound] the A50 (mice; icv, mouse tail-flick) was 4.2 nmol and the naloxone sensitivity (mice) was “yes”.

Compound C=CCN1C[C@H](C)N([C@H](c2ccc(C(=O)N(CC)CC)cc2)c2cccc(OC)c2)C[C@H]1C [SNC80, reference compound] has an EC50 (δ receptor [1]) of 758 ± 131 nM and an Emax (δ receptor [1]; read-out: agonist activity Emax % δ) of 100%.
